For data set [1], the target named is Wnt-responsive promoter (TCF/LEF). In words: Wnt-dependent luciferase reporter assay. It counts as cell-based, murine. Summed up:
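Murine 3T3 fibroblasts carrying a TCF/LEF-driven luciferase reporter, stimulated with Wnt3a in the presence of increasing peptide concentrations or vehicle. Luminescence inhibition gave EC50 values in uM.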
On the technique in general: In a reporter assay the amount or activity of a reporter protein is the signal.

The conditions of data set [2]: % Viability non-Wnt responsive cells.
The target of a further data set is T1, β-catenin (Homo sapiens, UniProt P35222).
T1 sequence (P35222 1-781): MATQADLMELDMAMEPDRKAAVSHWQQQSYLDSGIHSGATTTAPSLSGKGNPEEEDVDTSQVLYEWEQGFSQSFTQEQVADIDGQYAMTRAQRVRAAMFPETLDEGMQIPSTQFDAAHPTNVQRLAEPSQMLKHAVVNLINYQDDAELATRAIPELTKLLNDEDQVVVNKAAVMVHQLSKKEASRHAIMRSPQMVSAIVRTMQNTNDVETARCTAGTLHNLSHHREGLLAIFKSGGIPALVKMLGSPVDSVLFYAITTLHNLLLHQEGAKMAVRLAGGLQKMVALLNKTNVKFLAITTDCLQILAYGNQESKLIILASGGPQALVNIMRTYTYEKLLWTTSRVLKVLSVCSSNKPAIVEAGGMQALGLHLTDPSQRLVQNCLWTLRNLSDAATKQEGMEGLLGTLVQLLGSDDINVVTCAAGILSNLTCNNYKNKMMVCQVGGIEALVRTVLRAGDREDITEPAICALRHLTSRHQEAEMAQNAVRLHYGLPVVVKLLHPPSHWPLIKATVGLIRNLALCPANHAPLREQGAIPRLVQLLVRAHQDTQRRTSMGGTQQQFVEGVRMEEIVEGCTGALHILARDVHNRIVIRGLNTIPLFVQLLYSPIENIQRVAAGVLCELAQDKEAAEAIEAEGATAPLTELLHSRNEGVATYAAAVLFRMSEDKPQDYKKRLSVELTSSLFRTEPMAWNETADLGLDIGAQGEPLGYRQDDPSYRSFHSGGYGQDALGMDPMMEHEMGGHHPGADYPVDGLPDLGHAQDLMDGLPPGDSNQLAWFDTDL
Nature of the data set: KD50 measurement using competitive fluorescence polarization (FP) with labelled TCF4. It counts as binding. The conditions noted are these: fluorescence polarization, β-catenin; for Kd: read-out: β-Cat FP KD. Summed up: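 Labelled TCF4 (5 nM) mixed with 100 nM β-catenin at room temperature; inhibitor added as serial dilutions from 10 nM to 30 uM. Polarization read at excitation 470 nm/emission 520 nm; binding displacement lowers polarization. Three independent runs.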
(Polarisation of emitted light reports the rotation of a fluorescent probe.)

Where a SMILES comes first, the peptide text is derived from it.

What is called EC50 is the concentration that produces a half-maximal response. A low value points to higher potency in that assay. A word on the viability: it is a read-out of living cells in per cent, often relative to untreated cells. The Kd is the equilibrium constant for the complex coming apart.

Consider `CC[C@H](C)[C@H](NC(=O)[C@H](CC(C)C)NC(=O)[C@H](Cc1ccccc1)NC(=O)[C@H](Cc1c[nH]c2ccccc12)NC(=O)[C@H](CCSC)NC(=O)[C@H](CCCNC(=N)N)NC(=O)[C@H](CO)NC(=O)[C@@H](N)CCCNC(=N)N)C(=O)N[C@@H](CO)C(=O)N[C@@H](Cc1ccccc1)C(=O)N[C@@H](Cc1c[nH]c2ccccc12)C(N)=O` [compound 84] (H-RSRMWFLISFW-NH2), for which, in data set [1], the concentration giving a half-maximal response (EC50) was greater than 30 µM. In data set [2], the viability stood at 88.6%. Besides, the dissociation constant Kd at β-catenin was greater than 30 µM.
Regarding `CC[C@H](C)[C@H](NC(=O)[C@H](CC(C)C)NC(=O)[C@H](Cc1ccccc1)NC(=O)[C@H](Cc1c[nH]c2ccccc12)NC(=O)[C@H](CCSC)NC(=O)[C@H](CCCNC(=N)N)NC(=O)[C@H](CO)NC(=O)[C@@H](N)CC(=O)O)C(=O)N[C@@H](CO)C(=O)N[C@@H](Cc1ccccc1)C(=O)N[C@@H](Cc1c[nH]c2ccccc12)C(N)=O` [compound 85] (H-DSRMWFLISFW-NH2), the concentration for a half-maximal effect (EC50) in data set [1] is greater than 30 µM. Besides, the viability in data set [2] turned out to be 107%. For the same compound, on β-catenin, the Kd is greater than 30 µM.
Compound `CC[C@H](C)[C@H](NC(=O)[C@H](CC(C)C)NC(=O)[C@H](Cc1ccccc1)NC(=O)[C@H](Cc1c[nH]c2ccccc12)NC(=O)[C@H](CCSC)NC(=O)[C@H](CCCNC(=N)N)NC(=O)[C@H](CO)NC(=O)[C@@H](N)CCC(=O)O)C(=O)N[C@@H](CO)C(=O)N[C@@H](Cc1ccccc1)C(=O)N[C@@H](Cc1c[nH]c2ccccc12)C(N)=O` [compound 86] (H-ESRMWFLISFW-NH2) registered an EC50 in data set [1] greater than 30 µM. In addition, in data set [2], the viability turned out to be 103%. Further, the equilibrium dissociation constant (Kd) on β-catenin is greater than 30 µM.
In the case of `CC[C@H](C)[C@H](NC(=O)[C@H](CC(C)C)NC(=O)[C@H](Cc1ccccc1)NC(=O)[C@H](Cc1c[nH]c2ccccc12)NC(=O)[C@H](CCCCN)NC(=O)[C@H](CCCNC(=N)N)NC(=O)[C@H](CO)NC(=O)[C@@H](N)CCSC)C(=O)N[C@@H](CO)C(=O)N[C@@H](Cc1ccccc1)C(=O)N[C@@H](Cc1c[nH]c2ccccc12)C(N)=O` [compound 87] (H-MSRKWFLISFW-NH2), the EC50 in data set [1] was greater than 30 µM. In data set [2], the viability came to 114%. Also, the Kd on β-catenin was greater than 30 µM.
`CC[C@H](C)[C@H](NC(=O)[C@H](CC(C)C)NC(=O)[C@H](Cc1ccccc1)NC(=O)[C@H](Cc1c[nH]c2ccccc12)NC(=O)[C@H](Cc1c[nH]cn1)NC(=O)[C@H](CCCNC(=N)N)NC(=O)[C@H](CO)NC(=O)[C@@H](N)CCSC)C(=O)N[C@@H](CO)C(=O)N[C@@H](Cc1ccccc1)C(=O)N[C@@H](Cc1c[nH]c2ccccc12)C(N)=O` [compound 88] (H-MSRHWFLISFW-NH2) gave a 50% effective concentration (EC50) in data set [1] greater than 30 µM. Besides, the viability in data set [2] stood at 105%. The dissociation constant Kd on β-catenin is greater than 30 µM.
As for `CC[C@H](C)[C@H](NC(=O)[C@H](CC(C)C)NC(=O)[C@H](Cc1ccccc1)NC(=O)[C@H](Cc1c[nH]c2ccccc12)NC(=O)[C@H](CCSC)NC(=O)[C@H](CCCNC(=N)N)NC(=O)[C@H](CO)NC(=O)[C@@H](N)Cc1c[nH]cn1)C(=O)N[C@@H](CO)C(=O)N[C@@H](Cc1ccccc1)C(=O)N[C@@H](Cc1c[nH]c2ccccc12)C(N)=O` [compound 89] (H-HSRMWFLISFW-NH2), in data set [1], the 50% effective concentration (EC50) was greater than 30 µM. Moreover, the viability in data set [2] stood at 107%. Besides, the Kd on β-catenin is greater than 30 µM.
The compound `CC[C@H](C)[C@H](NC(=O)[C@H](CC(C)C)NC(=O)[C@H](Cc1ccccc1)NC(=O)[C@H](Cc1c[nH]c2ccccc12)NC(=O)[C@H](CCCCN)NC(=O)[C@H](CCCNC(=N)N)NC(=O)[C@H](CO)NC(=O)[C@@H](N)Cc1c[nH]c2ccccc12)C(=O)N[C@@H](CO)C(=O)N[C@@H](Cc1ccccc1)C(=O)N[C@@H](Cc1c[nH]c2ccccc12)C(N)=O` [compound 90] (H-WSRKWFLISFW-NH2) registered an EC50 in data set [1] greater than 30 µM. For the same compound, in data set [2], the viability was determined as 83.3%. Moreover, the equilibrium dissociation constant (Kd) on β-catenin was greater than 30 µM.
In data set [1], `CC[C@H](C)[C@H](NC(=O)[C@H](CC(C)C)NC(=O)[C@H](Cc1ccccc1)NC(=O)[C@H](Cc1c[nH]c2ccccc12)NC(=O)[C@H](Cc1c[nH]cn1)NC(=O)[C@H](CCCNC(=N)N)NC(=O)[C@H](CO)NC(=O)[C@@H](N)Cc1c[nH]c2ccccc12)C(=O)N[C@@H](CO)C(=O)N[C@@H](Cc1ccccc1)C(=O)N[C@@H](Cc1c[nH]c2ccccc12)C(N)=O` [compound 91] (H-WSRHWFLISFW-NH2) yielded an EC50 greater than 30 µM. The viability in data set [2] was 84.6%. The Kd at β-catenin was greater than 30 µM.
The compound `CC[C@H](C)[C@H](NC(=O)[C@H](CC(C)C)NC(=O)[C@H](Cc1ccccc1)NC(=O)[C@H](Cc1c[nH]c2ccccc12)NC(=O)[C@H](Cc1c[nH]c2ccccc12)NC(=O)[C@H](CCCNC(=N)N)NC(=O)[C@H](CO)NC(=O)[C@@H](N)Cc1c[nH]c2ccccc12)C(=O)N[C@@H](CO)C(=O)N[C@@H](Cc1ccccc1)C(=O)N[C@@H](Cc1c[nH]c2ccccc12)C(N)=O` [compound 92] (H-WSRWWFLISFW-NH2) displayed a half-maximal effective concentration (EC50) in data set [1] of 15 to 22.5 µM. For the same compound, in data set [2], the viability came to 87.8%. Besides, the Kd on β-catenin is greater than 30 µM.
For `CC[C@H](C)[C@H](NC(=O)[C@H](CC(C)C)NC(=O)[C@H](Cc1ccccc1)NC(=O)[C@H](Cc1c[nH]c2ccccc12)NC(=O)[C@H](CCCCN)NC(=O)[C@H](CCCNC(=N)N)NC(=O)[C@H](CO)NC(=O)[C@@H](N)CCCCN)C(=O)N[C@@H](CO)C(=O)N[C@@H](Cc1ccccc1)C(=O)N[C@@H](Cc1c[nH]c2ccccc12)C(N)=O` [compound 93] (H-KSRKWFLISFW-NH2) the same measures were greater than 30 µM, 94% and greater than 30 µM.
For `CC[C@H](C)[C@H](NC(=O)[C@H](CC(C)C)NC(=O)[C@H](Cc1ccccc1)NC(=O)[C@H](Cc1c[nH]c2ccccc12)NC(=O)[C@H](Cc1c[nH]cn1)NC(=O)[C@H](CCCNC(=N)N)NC(=O)[C@H](CO)NC(=O)[C@@H](N)CCCCN)C(=O)N[C@@H](CO)C(=O)N[C@@H](Cc1ccccc1)C(=O)N[C@@H](Cc1c[nH]c2ccccc12)C(N)=O` [compound 94] (H-KSRHWFLISFW-NH2) the same measures were greater than 30 µM, 118% and greater than 30 µM.
Compound `CC[C@H](C)[C@H](NC(=O)[C@H](CC(C)C)NC(=O)[C@H](Cc1ccccc1)NC(=O)[C@H](Cc1c[nH]c2ccccc12)NC(=O)[C@H](Cc1c[nH]c2ccccc12)NC(=O)[C@H](CCCNC(=N)N)NC(=O)[C@H](CO)NC(=O)[C@@H](N)CCCCN)C(=O)N[C@@H](CO)C(=O)N[C@@H](Cc1ccccc1)C(=O)N[C@@H](Cc1c[nH]c2ccccc12)C(N)=O` [compound 95] (H-KSRWWFLISFW-NH2) displayed an EC50 in data set [1] greater than 30 µM. Besides, the viability in data set [2] amounted to 109%. At β-catenin, the Kd is greater than 30 µM.
Consider `CC[C@H](C)[C@H](NC(=O)[C@H](CC(C)C)NC(=O)[C@H](Cc1ccccc1)NC(=O)[C@H](Cc1c[nH]c2ccccc12)NC(=O)[C@@H](N)CCSC)C(=O)N[C@@H](CO)C(=O)N[C@@H](CO)C(=O)N[C@@H](Cc1c[nH]c2ccccc12)C(=O)O` [compound 96] (H-MWFLISSW-OH), for which, in data set [1], the concentration giving a half-maximal response (EC50) was 7.5 to 15 µM. For the same compound, the viability in data set [2] stood at 97.3%. At β-catenin, the “β-Cat FP Hill slope” value was 0.7 and the Kd was 10 to 30 µM.
For `CC[C@H](C)[C@H](NC(=O)[C@H](CC(C)C)NC(=O)[C@H](Cc1ccccc1)NC(=O)[C@@H](N)Cc1c[nH]c2ccccc12)C(=O)N[C@@H](CO)C(=O)N[C@@H](CO)C(=O)N[C@@H](Cc1c[nH]c2ccccc12)C(=O)O` [compound 97] (H-WFLISSW-OH) the same measures were 22.5 to 30 µM, 102%, 2.45 and 1 to 10 µM.

The record behind these values is patent US12441768B2, “Compositions and methods for treating endometriosis” (EndoMet Biosciences, Inc., priority 2018, dated 2025).
